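In this assay, cells in 96-well plates receive the compound at five concentrations for 48 hours. Endpoints are linearly interpolated between the surrounding concentrations. The concentration for 50% growth inhibition is given as GI50. TGI denotes the concentration required for complete inhibition of growth.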
System: NCI-H23 lung
Experiment: NCI-60 cell line screen, 48 h

| Compound | TGI [µM] | GI50 [µM] |
| --- | --- | --- |
| CCN(CC)CCCNc1ccc([N+](=O)[O-])c2nc3ccc(OC)cc3c(NCCCN(CC)CC)c12 | 4.76 | – |
| CC1=C(C(=O)NNC(=O)CC#N)CC(C(=O)NNC(=O)CC#N)=C(C)N1 | > 100 | – |
| COC(=O)c1cc(C(=O)OC)cc(-c2ccc3c(c2)-c2nc4c(c(-c5ccc(OC)cc5)c2CC3)CCc2ccc(-c3cc(C(=O)OC)cc(C(=O)OC)c3)cc2-4)c1 | > 100 | – |
| CCCCCCNc1nc(NCCCCCC)c2[nH]c(NCCCCCC)nc2n1 | 23.3 | 8.77 |
| CN(C)c1nc(=NCc2ccccn2)ss1 | > 10 | – |

System: HOP-62 NSCLC
Experiment: NCI-60 cell line screen, 48 h

| Compound | TGI [µM] | GI50 [µM] |
| --- | --- | --- |
| COc1cc(OC)c(C2c3cc4c(cc3OC(N3CCOCC3)C2C)OCO4)c(OC)c1 (configuration not stated) | > 100 | – |
| CCN(CC)CCCNc1ccc([N+](=O)[O-])c2nc3ccc(OC)cc3c(NCCCN(CC)CC)c12 | > 10 | – |
| CC1=C(C(=O)NNC(=O)CC#N)CC(C(=O)NNC(=O)CC#N)=C(C)N1 | > 100 | – |
| COC(=O)c1cc(C(=O)OC)cc(-c2ccc3c(c2)-c2nc4c(c(-c5ccc(OC)cc5)c2CC3)CCc2ccc(-c3cc(C(=O)OC)cc(C(=O)OC)c3)cc2-4)c1 | > 100 | – |
| CCCCCCNc1nc(NCCCCCC)c2[nH]c(NCCCCCC)nc2n1 | 33 | 18.5 |
| COC(=O)c1cc2c3c(cc(NCCN)c2[nH]1)N(C(=O)c1cc2cc(OC)c(OC)c(OC)c2[nH]1)CC3CCl (configuration not stated) | 0.48 | – |
| CN(C)c1nc(=NCc2ccccn2)ss1 | > 10 | – |

System: MDA-MB-435
Experiment: NCI-60 cell line screen, 48 h

| Compound | TGI [µM] | GI50 [µM] |
| --- | --- | --- |
| COc1cc(OC)c(C2c3cc4c(cc3OC(N3CCOCC3)C2C)OCO4)c(OC)c1 (configuration not stated) | > 100 | – |
| CC1=C(C(=O)NNC(=O)CC#N)CC(C(=O)NNC(=O)CC#N)=C(C)N1 | > 100 | – |
| COC(=O)c1cc(C(=O)OC)cc(-c2ccc3c(c2)-c2nc4c(c(-c5ccc(OC)cc5)c2CC3)CCc2ccc(-c3cc(C(=O)OC)cc(C(=O)OC)c3)cc2-4)c1 | > 100 | – |
| CCCCCCNc1nc(NCCCCCC)c2[nH]c(NCCCCCC)nc2n1 | 24.9 | 8.75 |
| COC(=O)c1cc2c3c(cc(NCCN)c2[nH]1)N(C(=O)c1cc2cc(OC)c(OC)c(OC)c2[nH]1)CC3CCl (configuration not stated) | 0.293 | – |
| CN(C)c1nc(=NCc2ccccn2)ss1 | > 10 | – |

System: SNB-19 CNS
Experiment: NCI-60 cell line screen, 48 h

| Compound | TGI [µM] | GI50 [µM] |
| --- | --- | --- |
| COc1cc(OC)c(C2c3cc4c(cc3OC(N3CCOCC3)C2C)OCO4)c(OC)c1 (configuration not stated) | > 100 | – |
| CC1=C(C(=O)NNC(=O)CC#N)CC(C(=O)NNC(=O)CC#N)=C(C)N1 | > 100 | – |
| COC(=O)c1cc(C(=O)OC)cc(-c2ccc3c(c2)-c2nc4c(c(-c5ccc(OC)cc5)c2CC3)CCc2ccc(-c3cc(C(=O)OC)cc(C(=O)OC)c3)cc2-4)c1 | > 100 | – |
| CCCCCCNc1nc(NCCCCCC)c2[nH]c(NCCCCCC)nc2n1 | 29.5 | 15.5 |
| COC(=O)c1cc2c3c(cc(NCCN)c2[nH]1)N(C(=O)c1cc2cc(OC)c(OC)c(OC)c2[nH]1)CC3CCl (configuration not stated) | 0.0517 | – |
| CN(C)c1nc(=NCc2ccccn2)ss1 | > 10 | – |

System: MOLT-4 leukemia
Experiment: NCI-60 cell line screen, 48 h

| Compound | TGI [µM] | GI50 [µM] |
| --- | --- | --- |
| COc1cc(OC)c(C2c3cc4c(cc3OC(N3CCOCC3)C2C)OCO4)c(OC)c1 (configuration not stated) | > 100 | – |
| CC1=C(C(=O)NNC(=O)CC#N)CC(C(=O)NNC(=O)CC#N)=C(C)N1 | > 100 | – |
| CCCCCCNc1nc(NCCCCCC)c2[nH]c(NCCCCCC)nc2n1 | 35.4 | 3.12 |
| CN(C)c1nc(=NCc2ccccn2)ss1 | 4.91 | – |

System: EKVX NSCLC
Experiment: NCI-60 cell line screen, 48 h

| Compound | TGI [µM] | GI50 [µM] |
| --- | --- | --- |
| COc1cc(OC)c(C2c3cc4c(cc3OC(N3CCOCC3)C2C)OCO4)c(OC)c1 (configuration not stated) | > 100 | – |
| CCN(CC)CCCNc1ccc([N+](=O)[O-])c2nc3ccc(OC)cc3c(NCCCN(CC)CC)c12 | > 10 | – |
| CC1=C(C(=O)NNC(=O)CC#N)CC(C(=O)NNC(=O)CC#N)=C(C)N1 | > 100 | – |
| COC(=O)c1cc(C(=O)OC)cc(-c2ccc3c(c2)-c2nc4c(c(-c5ccc(OC)cc5)c2CC3)CCc2ccc(-c3cc(C(=O)OC)cc(C(=O)OC)c3)cc2-4)c1 | 31.3 | – |
| CCCCCCNc1nc(NCCCCCC)c2[nH]c(NCCCCCC)nc2n1 | 30 | 5.51 |
| COC(=O)c1cc2c3c(cc(NCCN)c2[nH]1)N(C(=O)c1cc2cc(OC)c(OC)c(OC)c2[nH]1)CC3CCl (configuration not stated) | 0.827 | – |
| CN(C)c1nc(=NCc2ccccn2)ss1 | > 10 | – |

System: RXF 393 renal
Experiment: NCI-60 cell line screen, 48 h

| Compound | TGI [µM] | GI50 [µM] |
| --- | --- | --- |
| CCN(CC)CCCNc1ccc([N+](=O)[O-])c2nc3ccc(OC)cc3c(NCCCN(CC)CC)c12 | 4.05 | – |
| CC1=C(C(=O)NNC(=O)CC#N)CC(C(=O)NNC(=O)CC#N)=C(C)N1 | > 100 | – |
| CCCCCCNc1nc(NCCCCCC)c2[nH]c(NCCCCCC)nc2n1 | 17.5 | 4.23 |
| CN(C)c1nc(=NCc2ccccn2)ss1 | > 10 | – |

System: UACC-257 melanoma
Experiment: NCI-60 cell line screen, 48 h

| Compound | TGI [µM] | GI50 [µM] |
| --- | --- | --- |
| COc1cc(OC)c(C2c3cc4c(cc3OC(N3CCOCC3)C2C)OCO4)c(OC)c1 (configuration not stated) | > 100 | – |
| CCN(CC)CCCNc1ccc([N+](=O)[O-])c2nc3ccc(OC)cc3c(NCCCN(CC)CC)c12 | > 10 | – |
| CC1=C(C(=O)NNC(=O)CC#N)CC(C(=O)NNC(=O)CC#N)=C(C)N1 | > 100 | – |
| COC(=O)c1cc(C(=O)OC)cc(-c2ccc3c(c2)-c2nc4c(c(-c5ccc(OC)cc5)c2CC3)CCc2ccc(-c3cc(C(=O)OC)cc(C(=O)OC)c3)cc2-4)c1 | > 100 | – |
| CCCCCCNc1nc(NCCCCCC)c2[nH]c(NCCCCCC)nc2n1 | 32.9 | 17 |
| CN(C)c1nc(=NCc2ccccn2)ss1 | > 10 | – |

System: SW-620 colon
Experiment: NCI-60 cell line screen, 48 h

| Compound | TGI [µM] | GI50 [µM] |
| --- | --- | --- |
| COc1cc(OC)c(C2c3cc4c(cc3OC(N3CCOCC3)C2C)OCO4)c(OC)c1 (configuration not stated) | > 100 | – |
| CCN(CC)CCCNc1ccc([N+](=O)[O-])c2nc3ccc(OC)cc3c(NCCCN(CC)CC)c12 | 3.98 | – |
| CC1=C(C(=O)NNC(=O)CC#N)CC(C(=O)NNC(=O)CC#N)=C(C)N1 | > 100 | – |
| CCCCCCNc1nc(NCCCCCC)c2[nH]c(NCCCCCC)nc2n1 | 12.3 | 3.04 |
| CN(C)c1nc(=NCc2ccccn2)ss1 | > 10 | – |

System: SF-268 CNS
Experiment: NCI-60 cell line screen, 48 h

| Compound | TGI [µM] | GI50 [µM] |
| --- | --- | --- |
| COc1cc(OC)c(C2c3cc4c(cc3OC(N3CCOCC3)C2C)OCO4)c(OC)c1 (configuration not stated) | > 100 | – |
| CCN(CC)CCCNc1ccc([N+](=O)[O-])c2nc3ccc(OC)cc3c(NCCCN(CC)CC)c12 | > 10 | – |
| CC1=C(C(=O)NNC(=O)CC#N)CC(C(=O)NNC(=O)CC#N)=C(C)N1 | > 100 | – |
| COC(=O)c1cc(C(=O)OC)cc(-c2ccc3c(c2)-c2nc4c(c(-c5ccc(OC)cc5)c2CC3)CCc2ccc(-c3cc(C(=O)OC)cc(C(=O)OC)c3)cc2-4)c1 | > 100 | – |
| CCCCCCNc1nc(NCCCCCC)c2[nH]c(NCCCCCC)nc2n1 | 15.5 | 4.36 |
| CN(C)c1nc(=NCc2ccccn2)ss1 | > 10 | – |

System: SR leukemia
Experiment: NCI-60 cell line screen, 48 h

| Compound | TGI [µM] | GI50 [µM] |
| --- | --- | --- |
| COc1cc(OC)c(C2c3cc4c(cc3OC(N3CCOCC3)C2C)OCO4)c(OC)c1 (configuration not stated) | > 100 | – |
| CCCCCCNc1nc(NCCCCCC)c2[nH]c(NCCCCCC)nc2n1 | 3.43 | 0.582 |
| CN(C)c1nc(=NCc2ccccn2)ss1 | 4.75 | – |

System: SK-MEL-5 melanoma
Experiment: NCI-60 cell line screen, 48 h

| Compound | TGI [µM] | GI50 [µM] |
| --- | --- | --- |
| COc1cc(OC)c(C2c3cc4c(cc3OC(N3CCOCC3)C2C)OCO4)c(OC)c1 (configuration not stated) | > 100 | – |
| CCN(CC)CCCNc1ccc([N+](=O)[O-])c2nc3ccc(OC)cc3c(NCCCN(CC)CC)c12 | > 10 | – |
| CC1=C(C(=O)NNC(=O)CC#N)CC(C(=O)NNC(=O)CC#N)=C(C)N1 | > 100 | – |
| COC(=O)c1cc(C(=O)OC)cc(-c2ccc3c(c2)-c2nc4c(c(-c5ccc(OC)cc5)c2CC3)CCc2ccc(-c3cc(C(=O)OC)cc(C(=O)OC)c3)cc2-4)c1 | > 100 | – |
| CCCCCCNc1nc(NCCCCCC)c2[nH]c(NCCCCCC)nc2n1 | 25.2 | 12.7 |
| COC(=O)c1cc2c3c(cc(NCCN)c2[nH]1)N(C(=O)c1cc2cc(OC)c(OC)c(OC)c2[nH]1)CC3CCl (configuration not stated) | 0.165 | – |
| CN(C)c1nc(=NCc2ccccn2)ss1 | > 10 | – |

System: HT29 colon
Experiment: NCI-60 cell line screen, 48 h

| Compound | TGI [µM] | GI50 [µM] |
| --- | --- | --- |
| COc1cc(OC)c(C2c3cc4c(cc3OC(N3CCOCC3)C2C)OCO4)c(OC)c1 (configuration not stated) | > 100 | – |
| CCN(CC)CCCNc1ccc([N+](=O)[O-])c2nc3ccc(OC)cc3c(NCCCN(CC)CC)c12 | 3.42 | – |
| CC1=C(C(=O)NNC(=O)CC#N)CC(C(=O)NNC(=O)CC#N)=C(C)N1 | > 100 | – |
| CCCCCCNc1nc(NCCCCCC)c2[nH]c(NCCCCCC)nc2n1 | 18.8 | 5.59 |
| COC(=O)c1cc2c3c(cc(NCCN)c2[nH]1)N(C(=O)c1cc2cc(OC)c(OC)c(OC)c2[nH]1)CC3CCl (configuration not stated) | 0.213 | – |
| CN(C)c1nc(=NCc2ccccn2)ss1 | > 10 | – |

System: RPMI-8226 leukemia
Experiment: NCI-60 cell line screen, 48 h

| Compound | TGI [µM] | GI50 [µM] |
| --- | --- | --- |
| COc1cc(OC)c(C2c3cc4c(cc3OC(N3CCOCC3)C2C)OCO4)c(OC)c1 (configuration not stated) | > 100 | – |
| CCN(CC)CCCNc1ccc([N+](=O)[O-])c2nc3ccc(OC)cc3c(NCCCN(CC)CC)c12 | 5.81 | – |
| COC(=O)c1cc(C(=O)OC)cc(-c2ccc3c(c2)-c2nc4c(c(-c5ccc(OC)cc5)c2CC3)CCc2ccc(-c3cc(C(=O)OC)cc(C(=O)OC)c3)cc2-4)c1 | > 100 | – |
| CCCCCCNc1nc(NCCCCCC)c2[nH]c(NCCCCCC)nc2n1 | 10.3 | 1.86 |
| CN(C)c1nc(=NCc2ccccn2)ss1 | > 10 | – |

System: SK-MEL-2 melanoma
Experiment: NCI-60 cell line screen, 48 h

| Compound | TGI [µM] | GI50 [µM] |
| --- | --- | --- |
| COc1cc(OC)c(C2c3cc4c(cc3OC(N3CCOCC3)C2C)OCO4)c(OC)c1 (configuration not stated) | > 100 | – |
| CC1=C(C(=O)NNC(=O)CC#N)CC(C(=O)NNC(=O)CC#N)=C(C)N1 | > 100 | – |
| COC(=O)c1cc(C(=O)OC)cc(-c2ccc3c(c2)-c2nc4c(c(-c5ccc(OC)cc5)c2CC3)CCc2ccc(-c3cc(C(=O)OC)cc(C(=O)OC)c3)cc2-4)c1 | > 100 | – |
| CCCCCCNc1nc(NCCCCCC)c2[nH]c(NCCCCCC)nc2n1 | 28.7 | 11.5 |
| COC(=O)c1cc2c3c(cc(NCCN)c2[nH]1)N(C(=O)c1cc2cc(OC)c(OC)c(OC)c2[nH]1)CC3CCl (configuration not stated) | 0.164 | – |

— PubChem BioAssay (NCI)
